The source of these data is paper PMC7665585, “Antidepressive effect of an inward rectifier K^+ channel blocker peptide, tertiapin-RQ” (PLoS ONE, 2020).

Bridge positions count the residues as written; N and C are the ends. Peptide text beside a SMILES is read from it.

What all share (assay type): in vivo, mouse
In data set [1] the test system is Male ICR mice. The experiment in a line: Balance beam test. To be noted: i.c.v.; 10 mm and 6 mm beams, central 60 cm. The method, then:
(§1) We performed mouse behavioral experiments in accordance with our previous study. Male ICR mice (n = 199 in total) aged 5 weeks old were purchased from Shimizu Laboratory Supplies (Kyoto, Japan) and maintained in an animal facility for 7–12 days. They had free access to food and water and were kept in a 12-h light/dark cycle (08:00–20:00). Experiments were carried out between 11:00 and 17:00 in a quiet and air-conditioned experimental room, to which mice were habituated for 30–60 min before each experiment. Animal experiments were performed in accordance with the guidelines of the Physiological Society of Japan and were approved by the Committee for Animal Experiments of Kurashiki University of Science and the Arts. Peptides were dissolved in phosphate-buffered saline (PBS). Peptides were injected intracerebroventricularly (i.c.v.) 30 min before behavioral tests (typically 5 μL/mouse), according to a previous study. The mouse was placed into an anesthetizing jar, to which isoflurane (0.2 mL) was added immediately before. […]
Motor coordination was assessed by measuring the ability to traverse a narrow beam to reach a familiar cage. […] The time required to cross the central 60 cm of the beam was measured.

The test system of data set [2] is Male ICR mice. The experiment in a line: Open field test (OFT). To be noted: i.c.v., 5 min. The method, then:
(§2) We performed mouse behavioral experiments in accordance with our previous study. Male ICR mice (n = 199 in total) aged 5 weeks old were purchased from Shimizu Laboratory Supplies (Kyoto, Japan) and maintained in an animal facility for 7–12 days. They had free access to food and water and were kept in a 12-h light/dark cycle (08:00–20:00). Experiments were carried out between 11:00 and 17:00 in a quiet and air-conditioned experimental room, to which mice were habituated for 30–60 min before each experiment. Animal experiments were performed in accordance with the guidelines of the Physiological Society of Japan and were approved by the Committee for Animal Experiments of Kurashiki University of Science and the Arts. Peptides were dissolved in phosphate-buffered saline (PBS). Peptides were injected intracerebroventricularly (i.c.v.) 30 min before behavioral tests (typically 5 μL/mouse), according to a previous study. The mouse was placed into an anesthetizing jar, to which isoflurane (0.2 mL) was added immediately before. After confirming that the mouse was deeply anesthetized we injected the peptide into the right cerebral ventricle over 30 seconds and the injection needle was kept for 1 min after the injection (i.c.v. coordinates: 0 mm caudal to bregma, 1.0 mm lateral to the midline, and 3.5 mm below the skull). The mouse was placed in a cage set on a heating pad (approximately 33°C) for a few minutes until it spontaneously started to move, and then it was put back into its home cage. Each animal was used only once, except for the wheel running test, which was carried out immediately after the elevated plus-maze.
The open-field test (OFT) was performed in accordance with a previous report. The open-field consisted of a square (90 × 90 cm), in which the floor was divided into 16 equal squares. After a mouse was placed in a corner of the open field facing the wall, the number of the entries into the central squares and whole line crossings were counted for 5 min. After the removal of the animal, the apparatus was cleaned and wiped.

For data set [3], the system named is Male ICR mice. The experiment in a line: Tail suspension test (TST). To be noted: 750 pmole i.c.v., 30 min before test, 5 min recording. The method, then:
as §2
The tail suspension test (TST) was performed in accordance with the method reported previously. The mouse was hung on a hook using adhesive tape placed 2 cm from the extremity of its tail 50 cm above a table. The amount of time spent immobile was recorded for 5 min.

In data set [4] the test system is Male ICR mice. The experiment in a line: Elevated plus-maze (EPM). Particulars: i.c.v., 5 min. The method, then: as §1
The elevated plus maze (EPM) apparatus consisted of four arms set in a cross pattern from a neutral central square (6 × 6 cm). […] The total number of entries to open arms and time spent in the open arms was measured. […]

The test system of data set [5] is Male ICR mice. Description: Forced swim test (FST). Particulars: i.c.v., 30 min before test, last 4 min of 6 min. The method, then:
as §1
The forced swim test (FST) was performed in accordance with the method reported previously. […] The mouse was allowed to swim for 6 min and its activity was measured. […]

Turning to `CC[C@H](C)[C@@H]1NC(=O)[C@H](CCCNC(=N)N)NC(=O)[C@H](CCCNC(=N)N)NC(=O)[C@H](CC(N)=O)NC(=O)[C@@H]2CSSC[C@@H](C(=O)NCC(=O)N[C@@H](CCCCN)C(=O)N[C@@H](CCCCN)C(N)=O)NC(=O)[C@H](CCCCN)NC(=O)[C@H](CCCCN)NC(=O)[C@H](Cc3c[nH]c4ccccc34)NC(=O)[C@H](CSSC[C@H](NC(=O)[C@H](CC(C)C)NC(=O)[C@H](C)N)C(=O)N[C@@H](CC(N)=O)C(=O)N2)NC(=O)[C@H](CCC(N)=O)NC(=O)[C@H](Cc2c[nH]cn2)NC(=O)[C@@H]2CCCN2C(=O)[C@H]([C@@H](C)CC)NC1=O` [Peptide 2, TPN-RQ] (H-ALCNCNRRIIPHQCWKKCGKK-NH2; disulfide 3-14, 5-18), the “time required to cross the beam” value with Male ICR mice [1] is recorded as “longer”.

Turning to `CC[C@H](C)[C@@H]1NC(=O)[C@H](CCCNC(=N)N)NC(=O)[C@H](CC(N)=O)NC(=O)[C@@H]2CSSC[C@@H](C(=O)NCC(=O)N[C@@H](CCCCN)C(=O)N[C@@H](CCCCN)C(N)=O)NC(=O)[C@H](CCCCN)NC(=O)[C@H](CCCCN)NC(=O)[C@H](Cc3c[nH]c4ccccc34)NC(=O)[C@H](CSSC[C@H](NC(=O)[C@H](CC(C)C)NC(=O)[C@H](C)N)C(=O)N[C@@H](CC(N)=O)C(=O)N2)NC(=O)[C@H](CCC(N)=O)NC(=O)[C@H](CC(C)C)NC(=O)[C@@H]2CCCN2C(=O)[C@H]([C@@H](C)CC)NC(=O)[C@H]([C@@H](C)CC)NC1=O` [Peptide 3, TPN-LQ] (H-ALCNCNRIIIPLQCWKKCGKK-NH2; disulfide 3-14, 5-18; N-terminus and C-terminus assumed), in the data set with Male ICR mice [2], the “entries to the central area in OFT” value is reported as “decreased” and the “number of total line crossings in OFT” value was “decreased”. Moreover, the “central line crossings in OFT” value in the data set with Male ICR mice [2] (n = 6 and 7) was “decreased”. Further, the “immobile time in TST” value in the data set on Male ICR mice [3] is listed as “decreased the immobile time”. Also, in the data set on Male ICR mice [4], the “number of entries to the open arms in EPM” value is given as “decreased” and the “time spent in the open arms in EPM” value is “decreased”. In the data set with Male ICR mice [5], the “immobile time in FST” value is reported as “decreased the immobile time”.
